The source of these data is ChEMBL document CHEMBL3994587, “An insight on synthetic and medicinal aspects of pyrazolo[1,5-a]pyrimidine scaffold” (Eur J Med Chem, 2017).

The structures appear in SMILES notation. ≈ marks a conversion by molar mass, not a printed value.

Assay [1] has as its target T1, Translocator protein (Rattus norvegicus, UniProt P16257). Description: Displacement of [3H]PK11195 from PBZR in rat kidney mitochondrial membranes measured after 90 mins by liquid scintillation counting. Format: cell membranes.
Assay [2] has as its target T1, Translocator protein. Description: Displacement of [3H]Ro5-4864 from PBZR in rat kidney mitochondrial membranes measured after 90 mins by liquid scintillation counting. Format: cell membranes. (In a radioligand displacement assay an active substance lowers the binding of a labelled ligand.)
Assay [3] relates to Staphylococcus aureus. Description: Antibacterial activity against Staphylococcus aureus measured after 18 hrs by agar dilution method. Format: functional.
For assay [4], the system named is Bacillus subtilis. The assay is described as follows: Antibacterial activity against Bacillus subtilis measured after 18 hrs by agar dilution method. Format: functional.
Assay [5] relates to Escherichia coli. Description: Antibacterial activity against Escherichia coli measured after 18 hrs by agar dilution method. Format: functional. On the technique in general: Agar dilution tests growth on a series of plates holding different concentrations.
Assay [6] has as its system Pseudomonas aeruginosa. The assay is described as follows: Antibacterial activity against Pseudomonas aeruginosa measured after 18 hrs by agar dilution method. Format: functional.
For assay [7], the system named is Candida albicans. The assay is described as follows: Antifungal activity against Candida albicans measured after 18 hrs by agar dilution method. Format: functional.
In assay [8] the test system is Staphylococcus aureus. Description: Antibacterial activity against Staphylococcus aureus RCMB 000108 assessed as zone of inhibition at 30 ug/ml. Format: functional. The settings on record: read-out: IZ.
Assay [9] concerns Bacillus subtilis. Description: Antibacterial activity against Bacillus subtilis RCMB 000109 assessed as zone of inhibition at 30 ug/ml. Format: functional. The settings on record: read-out: IZ.
Assay [10] deals with Pseudomonas aeruginosa. The assay is described as follows: Antibacterial activity against Pseudomonas aeruginosa RCMB 000103 assessed as zone of inhibition at 30 ug/ml. Format: functional. The settings on record: read-out: IZ.
The test system of assay [11] is Escherichia coli. Description: Antibacterial activity against Escherichia coli RCMB 000106 assessed as zone of inhibition at 30 ug/ml. Format: functional. Conditions: read-out: IZ.
The subject of assay [12] is Trichophyton mentagrophytes. Description: Anti-fungal activity against Trichophyton mentagrophytes measured after 48 hrs by broth dilution method. Format: functional.
A further assay concerns Ehrlich. Description: Cytotoxicity against […] EAC cells by trypan blue staining based microscopic analysis. Format: functional, cell-based, Mus musculus.
For assay [13], the system named is Staphylococcus aureus. The assay is described as follows: Antibacterial activity against Staphylococcus aureus NCTC 7447 assessed as zone of inhibition at 1 mg/ml measured after 24 hrs by agar diffusion method. Format: functional. Conditions: NCTC 7447, 24 h, read-out: IZ.
Assay [14] deals with Bacillus subtilis. The assay is described as follows: Antibacterial activity against Bacillus subtilis NCTC 10400 assessed as zone of inhibition at 1 mg/ml measured after 24 hrs by agar diffusion method. Format: functional. Conditions: NCTC 10400, 24 h, read-out: IZ. For orientation: A growth-free zone around the sample is the usual read-out of agar diffusion tests.
The test system of another assay is Sarcina. The assay is described as follows: Antibacterial activity against Sarcina sp. NCTC 1117 assessed as zone of inhibition at 1 mg/ml measured after 24 hrs by agar diffusion method. Format: functional. The settings on record: NCTC 1117, 24 h, read-out: IZ.
Assay [15] has as its system Escherichia coli. The assay is described as follows: Antibacterial activity against Escherichia coli NCTC 10416 assessed as zone of inhibition at 1 mg/ml measured after 24 hrs by agar diffusion method. Format: functional. The settings on record: NCTC 10416, 24 h, read-out: IZ.
The subject of a further assay is Serratia marcescens. Description: Antibacterial activity against Serratia marcescens IMRU 70 assessed as zone of inhibition at 1 mg/ml measured after 24 hrs by agar diffusion method. Format: functional. The settings on record: IMRU 70, 24 h, read-out: IZ.
Another assay has as its system Aspergillus fumigatus. Description: Antifungal activity against Aspergillus fumigatus RCMB 002006 assessed as zone of inhibition at 30 ug/ml. The settings on record: read-out: IZ. Format: functional.
The next assay has as its system Geotrichum candidum. The assay is described as follows: Antifungal activity against Geotrichum candidum 052008 assessed as zone of inhibition at 30 ug/ml. Format: functional. Conditions: read-out: IZ.
The test system of assay [16] is Syncephalastrum racemosum. The assay is described as follows: Antifungal activity against Syncephalastrum racemosum 005004 assessed as zone of inhibition at 30 ug/ml. Format: functional. Conditions: read-out: IZ.
The subject of another assay is Salmonella typhi. Description: Antibacterial activity against Salmonella typhi MTCC 98 assessed as zone of inhibition at 25 to 150 ug/ml measured after 24 hrs by agar well diffusion method. Format: functional, Salmonella enterica subsp. enterica serovar Typhi.
For assay [17], the system named is Escherichia coli. The assay is described as follows: Antibacterial activity against Escherichia coli MTCC 443 assessed as zone of inhibition at 25 to 150 ug/ml measured after 24 hrs by agar well diffusion method. Format: functional.
For assay [18], the system named is Bacillus subtilis. The assay is described as follows: Antibacterial activity against Bacillus subtilis MTCC 441 assessed as zone of inhibition at 25 to 150 ug/ml measured after 24 hrs by agar well diffusion method. Format: functional.
In a further assay the test system is Aspergillus niger. The assay is described as follows: Antifungal activity against Aspergillus niger assessed as zone of inhibition at 25 to 150 ug/ml measured after 24 to 48 hrs by agar well diffusion method. Format: functional.
A further assay deals with Aspergillus flavus. The assay is described as follows: Antifungal activity against Aspergillus flavus MTCC 3008 assessed as zone of inhibition at 25 to 150 ug/ml measured after 24 to 48 hrs by agar well diffusion method. Format: functional.
The subject of assay [19] is Candida albicans. The assay is described as follows: Antifungal activity against Candida albicans MTCC 227 assessed as zone of inhibition at 25 to 150 ug/ml measured after 24 to 48 hrs by agar well diffusion method. Format: functional.
For a further assay, the system named is Penicillium chrysogenum. The assay is described as follows: Antifungal activity against Penicillium chrysogenum MTCC 160 assessed as zone of inhibition at 25 to 150 ug/ml measured after 24 to 48 hrs by agar well diffusion method. Format: functional.
A further assay concerns Tritrichomonas foetus. Description: Anti-parasitic activity against Tritrichomonas foetus measured after 48 hrs by microscopic analysis. Format: functional.

T1 sequence (P16257 whole entry, looked up): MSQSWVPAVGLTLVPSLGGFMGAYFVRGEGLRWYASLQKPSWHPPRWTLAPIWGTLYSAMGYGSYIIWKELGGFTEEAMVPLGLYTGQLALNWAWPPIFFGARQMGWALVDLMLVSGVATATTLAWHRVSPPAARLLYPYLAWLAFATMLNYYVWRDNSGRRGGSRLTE

Consider `CCC(CC)C(=O)Cc1c(-c2ccc(OC)cc2)nn2c(C)cc(C)nc12`, for which the Ki was 4.7 nM at Translocator protein [1] and 3.1 nM on Translocator protein [2].

In the case of `O=C(O)c1cn(C2CC2)c2cc(N3CCNCC3)c(F)cc2c1=O` [CIPROFLOXACIN], the MIC was at most 25 µg/mL in the assay on Staphylococcus aureus [3]; at most 25 µg/mL in the assay with Bacillus subtilis [4]; at most 25 µg/mL with Escherichia coli [5]; 400 µg/mL (≈ 1210 µM) with Pseudomonas aeruginosa [6]; at least 800 µg/mL in the assay with Candida albicans [7].

For `CCC(CC)C(=O)Cc1c(-c2ccc(C)cc2)nn2c(C)cc(C)nc12`, the Ki at Translocator protein [1] is 0.8 nM; on Translocator protein [2], 1.7 nM.

As for `CN[C@@H]1[C@H](O[C@H]2[C@H](O[C@H]3[C@H](O)[C@@H](O)[C@H](N=C(N)N)[C@@H](O)[C@@H]3N=C(N)N)O[C@@H](C)[C@]2(O)C=O)O[C@@H](CO)[C@H](O)[C@H]1O` [STREPTOMYCIN], the zone of inhibition at 30 µg/mL in the assay on Staphylococcus aureus [8] was determined as 28.1 mm; with Bacillus subtilis [9], 29.7 mm; in the assay on Pseudomonas aeruginosa [10] it was 25.2 mm; in the assay on Escherichia coli [11], 29.7 mm.

In assay [12], `CCCCCCCC/C=C\CCCCCCCCNc1cc(C)nc2c(Br)cnn12` showed an MLC of 20 µM (≈ 9.55 µg/mL). Further, the MIC in [12] (Trichophyton mentagrophytes, 48 h) turned out to be 10 µM (≈ 4.78 µg/mL).

Take `Cc1nc(-c2ccccc2)sc1-c1ccn2nc(-c3ccccc3)cc2n1`: the MIC with Staphylococcus aureus [3], against Bacillus subtilis [4], against Escherichia coli [5], in the assay on Pseudomonas aeruginosa [6] and in the assay with Candida albicans [7] was at least 800 µg/mL throughout.

With `Cc1nn2c(-c3ccccc3)ccnc2c1/N=N/c1c(C)n(C)n(-c2ccccc2)c1=O`, in the assay on Ehrlich, the ED25 is 70.2 µg/mL (≈ 166 µM) and the ED100 came to 99.8 µg/mL. The compound also displayed a concentration for half-maximal inhibition (IC50) with Ehrlich (Mus musculus, Ehrlich) of 3.13 µg/mL (≈ 7.39 µM). In addition, the EC50 in the assay with Ehrlich (Mus musculus, Ehrlich, read-out: ED50 (the source's name)) stood at 87.1 µg/mL (≈ 206 µM).

Regarding `COc1ccc(NS(=O)(=O)c2ccc(/N=N/c3c(=O)[nH]n4c(-c5ncccn5)c(C#N)c(N)nc34)cc2)cc1`, the zone of inhibition at 1000 µg/mL is 12 to 14 mm in the assay with Staphylococcus aureus [13]; 9 to 11 mm in the assay on Bacillus subtilis [14]; 15 to 18 mm with Sarcina; 15 to 18 mm in the assay on Escherichia coli [15]; 15 to 18 mm in the assay with Serratia marcescens.

Regarding `CCC(CC)C(=O)Cc1c(-c2ccc(Cl)cc2)nn2c(C)cc(-c3ccccc3)nc12`, the Ki stood at 3.4 nM at Translocator protein [1] and 2.7 nM at Translocator protein [2].

Turning to `Nc1nn2c(-c3ccco3)cc(-c3ccco3)nc2c1/N=N/c1ccccc1`, the zone of inhibition at 30 µg/mL was 16.7 mm in the assay on Staphylococcus aureus [8]; 15.7 mm in the assay on Bacillus subtilis [9]; 15.2 mm in the assay on Escherichia coli [11]; 14.2 mm in the assay on Aspergillus fumigatus; 15.3 mm with Geotrichum candidum; 10.2 mm in assay [16].

On to `Cc1nn(-c2ccccc2)c(Cl)c1-c1cc(-c2cc(Cl)cc(Cl)c2O)nc2c(/N=N/c3ccc(Cl)cc3)c(N)nn12`, for which the “inhibition zone (IZ)” value turned out to be 24 mm with Salmonella typhi; 26 mm in the assay with Escherichia coli [17]; 16 mm in the assay with Bacillus subtilis [18]; 18 mm with Aspergillus niger; 21 mm in the assay with Aspergillus flavus; 17 mm with Candida albicans [19]. Besides, in the assay with Penicillium chrysogenum, the “inhibition zone (IZ)” value was 24 mm.

Take `OC(Cn1cncn1)(Cn1cncn1)c1ccc(F)cc1F` [FLUCONAZOLE]: the MIC against Staphylococcus aureus [3] is at least 800 µg/mL; with Bacillus subtilis [4] it was at least 800 µg/mL; against Escherichia coli [5], at least 800 µg/mL; in the assay with Pseudomonas aeruginosa [6] it was at least 800 µg/mL; in the assay on Candida albicans [7] it was at most 25 µg/mL.

As to `Cc1ncc([N+](=O)[O-])n1CCO` [METRONIDAZOLE], in the assay with Tritrichomonas foetus, the MLC was found to be 10 µg/mL (≈ 58.4 µM). The compound further returned an MIC in the assay on Tritrichomonas foetus (Tritrichomonas foetus, 48 h) of 3.2 µg/mL (≈ 18.7 µM).

Broadly, the Ki is a measure of affinity in units of concentration, obtained from inhibition or displacement. The low end stands for a stronger hold on the target, the high end for a looser hold on the target. In general, MIC refers to the smallest concentration in the dilution series that meets the test's criterion for growth inhibition. In general, IC50 refers to the concentration that inhibits the measured activity by half. A low value points to greater potency.
